Measured values reported in BigSolDB 2.1.

O=C(NCCO[N+](=O)[O-])c1cccnc1
solubility (mole fraction)
Conditions	278.15 K	283.15 K	288.15 K	293.15 K	298.15 K	303.15 K	308.15 K	313.15 K	318.15 K	323.15 K
in DMF	0.0135	0.0146	0.0156	0.0168	0.0179	0.0191	0.0202	0.0213	0.0225	0.024
in ethanol	0.00153	0.00167	0.00181	0.00195	0.00208	0.00222	0.00236	0.0025	0.00264	0.00281
in isopropanol	0.0011	0.00119	0.00129	0.00139	0.00149	0.00159	0.00169	0.00178	0.00188	0.002
in methanol	0.0017	0.00182	0.00195	0.00211	0.00226	0.0024	0.00256	0.00271	0.00286	0.00306
in water	0.000204	0.000222	0.00024	0.000257	0.000275	0.000291	0.000307	0.000325	0.000346	0.000367
